Results reported in patent EP0195316A1, “Quinolonecarboxylic acid derivatives” (KYORIN PHARMACEUTICAL CO., LTD., priority 1985, dated 1986).
Converted amounts (≈) assume the structure as drawn. Read-outs that look alike come from different tables or passages of the source. Marks after values point to notes of the source that are not given here.

What was measured:
[1] = tested on: Bacteroides fragilis GM 7000; assay: MIC, in vitro antibacterial activity (standard strains); type: cell-based; conditions: GM7000; Bacteroides fragilis GM 7000, 10^6 cells/ml, Gram -
in vivo [2] = conditions: mouse, iv
Subacute toxicity in dog = type: in vivo; conditions: beagle dogs, oral, 20 mg/kg/day for 8 days then 50 mg/kg/day for 7 days
Description: Subacute toxicity study of the present compound was carried out in beagledogs (10 weeks old, n=3). To animals 20 mg/kg/day of the present compound for 8 days and after that 50 mg/kg/day for 7 days was administered orally.

S. marcescens IID 618 = type: cell-based
S. aureus Smith = assay: In vivo antibacterial activity against systemic infections in mice; conditions: Staphylococcus aureus; S. aureus Smith systemic infection (i.p.), male ICR mice, oral administration an hour after infection; read-out: ED50
Description: (§1) The infections were produced by intraperitoneal injection of suspension of the bacterial cells. The compounds were administered orally at an hour after the injection. Five male ICR mice were used for each dosage. […] The efficacy of the present compound are shown in Table 4 in comparison with those of the reference compounds.

S. pneumoniae S-4288 = assay: as above; conditions: Streptococcus pneumoniae, S4288; S. pneumoniae S-4288 systemic infection (i.p.), male ICR mice, oral administration an hour after infection; read-out: ED50
Description: as §1

P. aeruginosa IID 1210 = assay: as above; conditions: Pseudomonas aeruginosa, IID1210; P. aeruginosa IID 1210 systemic infection (i.p.), male ICR mice, oral administration an hour after infection; read-out: ED50
Description: as §1

E. coli ML 4707 = assay: as above; conditions: Escherichia coli, ML4707; E. coli ML 4707 systemic infection (i.p.), male ICR mice, oral administration an hour after infection; read-out: ED50
Description: as §1

[3] = tested on: nalidixic acid-resistant Salmonella typhimurium TA98 strain (nal^r); assay: Mutagenicity, reverse mutation assay
Description: As for antibacterial agents, assessment of mutagenicity using bacteria is somewhat difficult because of their activity on the test bacteria.

in vivo [4] = conditions: rat, po, 10 mg/kg
[5] = Absorption and metabolism in dogs (HPLC); type: in vivo, beagle dogs
Description: A 2 mg dose of the present compound was administered to beagle dogs orally or intravenously, and the serum levels were measured by HPLC (High-performance liquid chromatography).

[6] = Repeated oral administration to dog (reference compound); type: in vivo
[7] = S. marcescens IID 618, Conc. of Drugs 2MIC
[8] = S. marcescens IID 618, Conc. of Drugs 4MIC

Structure (SMILES): NC1CCN(c2c(F)cc3c(=O)c(C(=O)O)cn(C4CC4)c3c2Cl)C1 (stereo not drawn) [Example 25, 7-(3-Amino-l-pyrrolidinyl)-8-chloro-l-cyclopropyl-6-fluoro-1,4-dihydro-4-oxo-3-quinolinecarboxylic acid]
- MIC [1]: 0.1 µg/mL (≈ 0.273 µM)
- LD50 (in vivo [2]): 242 mg/kg
- changes in body weight and general conditions (Subacute toxicity in dog): No remarkable changes in body weight and general conditions
- hematological examination and serum biochemical analysis (Subacute toxicity in dog): no abnormality with regard to hematological examination and serum biochemical analysis
- Frequency of spontaneous resistant mutants (S. marcescens IID 618; [7]): 1.5 × 10^-8
- Frequency of spontaneous resistant mutants (S. marcescens IID 618; [8]): <1.0 × 10^-9
- ED50 (S. aureus Smith): 2 mg/kg
- ED50 (S. pneumoniae S-4288): 13 mg/kg
- ED50 (P. aeruginosa IID 1210): 2.9 mg/kg
- ED50 (E. coli ML 4707): 0.9 mg/kg
- His^+ revertants per plate ([3]; 0.005 µg/plate, S9-mix +): 60
- His^+ revertants per plate ([3]; 0.005 µg/plate, S9-mix -): 28
- His^+ revertants per plate ([3]; 0.01 µg/plate, S9-mix +): 48
- His^+ revertants per plate ([3]; 0.01 µg/plate, S9-mix -): 29
- His^+ revertants per plate ([3]; 0.05 µg/plate, S9-mix +): 39*
- His^+ revertants per plate ([3]; 0.05 µg/plate, S9-mix -): 26
- His^+ revertants per plate ([3]; 0.1 µg/plate, S9-mix +): 6*
- His^+ revertants per plate ([3]; 0.1 µg/plate, S9-mix -): 16*
- His^+ revertants per plate ([3]; 0.5 µg/plate, S9-mix +): 0*
- His^+ revertants per plate ([3]; 0.5 µg/plate, S9-mix -): 0*
- His revertant colonies compared with the solvent control ([3]; within measurable concentration, with and without the drug metabolic activation): no increment of His revertant colonies
- dose excreted at 24 h (in vivo [4]; Excretion rate (% of dose) Bile): 13.4%
- dose excreted at 24 h (in vivo [4]; Excretion rate (% of dose) Urine): 21.7%
- urinary metabolites ([5]; animals (dogs section)): may be hardly metabolized
- Serum levels by oral route versus intravenous route ([5]; beagle dogs, 2 mg dose, HPLC): almost equal to those by intravenous route

Structure (SMILES): CC1CN(c2c(F)cc3c(=O)c(C(=O)O)cn(C4CC4)c3c2Cl)CCN1 (stereo not drawn) [Ref.2, 8-Chloro-1-cyclopropyl-6-fluoro-1,4-dihydro-7-(3-methyl-1-piperazinyl)-4-oxo-3-quinolinecarboxylic acid]
- MIC [1]: 0.39 µg/mL (≈ 1.03 µM)
- Frequency of spontaneous resistant mutants (S. marcescens IID 618; [7]): 1.0 × 10^-7
- Frequency of spontaneous resistant mutants (S. marcescens IID 618; [8]): <1.0 × 10^-9
- GPT and TTT (hepatoxicity) [6]: marked elevation of GPT and decrease of TTT
- side effect on central nervous system [6]: strong vomiting and clonic convulsion
